According to PMC7897990, “TriTOX: A novel Trichomonas vaginalis assay platform for high-throughput screening of compound libraries” (International Journal for Parasitology: Drugs and Drug …, 2021):
Where two headings read alike, the source gives them in different places. Starred links: 1 amine or outer side, 2 acyl side, 3 side chain; linkers in the order of their positions; H or OH if unused. Positions of bridges follow the written chain, without caps; N, C: chain ends. Non-standard residues stand in square brackets, D forms with d. Residues, ends and D or L forms follow the SMILES beside them. *: point of attachment. Orn(4R-OH,5R-OH) = O=C([C@H](C[C@@H](O)[C@@H](O)N[*:3])N[*:1])[*:2]; Tetradecanoyl(10R,12S-Me2) = CC[C@H](C)C[C@H](C)CCCCCCCCC(=O)*; hTyr(3S-OH,4S-OH) = N[C@H](C(=O)O)[C@H](O)[C@@H](O)c1ccc(O)cc1; Gln(3R-OH) = NC(=O)C[C@@H](O)[C@H](N)C(=O)O; Pro(3S-OH) = O=C(O)[C@H]1NCC[C@@H]1O; Hyp = O=C(O)[C@@H]1C[C@@H](O)CN1

Columns and labels:
[1] = system: Trichomonas vaginalis G3 trophozoites; settings: for T.vaginalis_Absorbance_Rep1: replicate 1, raw absorbance; for T.vaginalis_Absorbance_Rep2: replicate 2, raw absorbance; for T. vaginalis HTS result in words: 384-well, 25 μL, 10,000 cells/mL, 48 h, biological duplicates, hit = >50% inhibition
[2] = system: nontumorigenic neonatal foreskin fibroblast (NFF) cell line
[3] = HTS, parasite screen at 1 µg/mL, replicate 1
[4] = HTS, parasite screen at 1 µg/mL, replicate 2
[5] = HTS replicate 1, parasite screen 1 µg/mL
[6] = HTS replicate 2, parasite screen 1 µg/mL
[7] = HTS, parasite screen at 1 µg/mL

CN[C@@H]1C[C@H]2O[C@@](C)([C@@H]1OC)n1c3ccccc3c3c4c(c5c6ccccc6n2c5c31)C(=O)N[C@H]4O [UCN-02]
T.vaginalis_%inb_Rep1 [1, 3]: 9.65% | T.vaginalis_%inb_Rep2 [1, 4]: 20.96% | NFF_Activity ([2]; NFF fibroblast screen at 5 µg/mL, A = active, I = inactive): A (active (A) compounds having >25% inhibitory activity)

CC[C@H]1/C=C/C=C/C[C@@H](C)[C@H](O)[C@@](C)(O)C(=O)[C@@H](C)[C@H](O)[C@@H](C)C(=O)[C@@H](C)[C@H](O)[C@@H](C)/C=C/C(=O)O[C@@H]2[C@H](C)[C@H](CC1)O[C@@]1(O[C@@H](C[C@@H](C)O)[C@@H](C)CC1=O)[C@]2(C)O [Oligomycin E]
T.vaginalis_%inb_Rep1 [1, 5]: 14.66% | T.vaginalis_%inb_Rep2 [1, 6]: 15.07% | NFF_Activity [2]: I (key: active (A) compounds having >25% inhibitory activity; otherwise these were reported as inactive (I))

CN(C)C1C(=O)C(C(N)=O)=C(O)C2(O)C(=O)C3=C(O)c4c(O)ccc(Cl)c4C(C)(O)C3CC12.Cl (stereo not shown) [Epichlortetracycline hydrochloride]
T.vaginalis_%inb_Rep1 [1, 3]: 7.49% | T.vaginalis_Absorbance_Rep1 [1, 7]: 0.848 | T.vaginalis_%inb_Rep2 [1, 4]: 3.76% | T.vaginalis_Absorbance_Rep2 [1, 7]: 0.672

CO[C@H]1C[C@H](O[C@@H]2/C(C)=C/C[C@@H]3C[C@@H](C[C@]4(C=C[C@H](C)[C@@H](C5CCCCC5)O4)O3)OC(=O)[C@@H]3C=C(C)[C@@H](O)[C@H]4OC/C(=C\C=C\[C@@H]2C)[C@]43O)O[C@@H](C)[C@@H]1O [Doramectin monosaccharide]
T.vaginalis_%inb_Rep1 [1, 3]: 13.89% | T.vaginalis_Absorbance_Rep1 [1, 7]: 0.967 | T.vaginalis_%inb_Rep2 [1, 4]: 12.80% | T.vaginalis_Absorbance_Rep2 [1, 7]: 0.797

CN[C@@H]1C[C@H]2O[C@@](C)([C@@H]1OC)n1c3ccccc3c3c4c(c5c6ccccc6n2c5c31)C(=O)NC4 [staurosporine, reference compound]
T. vaginalis HTS result in words [1]: supported the anti-trichomonal activity

CC(C)CCC[C@@H](C)[C@@H]1CC[C@]2(C)C3=C(CC[C@@]12C)[C@@]1(C)CC[C@H](O)C(C)(C)[C@@H]1CC3 [Dihydroeuphol]
T.vaginalis_%inb_Rep1 [1, 3]: 14.92% | T.vaginalis_Absorbance_Rep1 [1, 7]: 0.986 | T.vaginalis_%inb_Rep2 [1, 4]: 10.05% | T.vaginalis_Absorbance_Rep2 [1, 7]: 0.759

CO[C@H]1C[C@H](O[C@H]2[C@H](C)O[C@@H](O[C@@H]3/C(C)=C/C[C@@H]4C[C@@H](C[C@]5(C=C[C@H](C)[C@@H](C6CCCCC6)O5)O4)OC(=O)[C@@H]4C=C(C)[C@@H](O)[C@H]5OC/C(=C\C=C\[C@@H]3C)[C@]54O)C[C@@H]2OC)O[C@@H](C)[C@@H]1O [Doramectin]
T.vaginalis_%inb_Rep1 [1, 3]: 11.20% | T.vaginalis_Absorbance_Rep1 [1, 7]: 0.917 | T.vaginalis_%inb_Rep2 [1, 4]: 11.21% | T.vaginalis_Absorbance_Rep2 [1, 7]: 0.775

COc1c(Cl)c(O)c(Cl)c(C)c1C(=O)O[C@H]1[C@H](O)C[C@H](O[C@H]2[C@@H](O)CC(=O)O[C@@H]2C)O[C@@H]1C [Flambalactone]
T.vaginalis_%inb_Rep1 [1, 3]: 13.89% | T.vaginalis_Absorbance_Rep1 [1, 7]: 0.967 | T.vaginalis_%inb_Rep2 [1, 4]: 13.52% | T.vaginalis_Absorbance_Rep2 [1, 7]: 0.807

C/C1=C\C(C)C(O)/C(C)=C/C(O[C@H]2O[C@H](CO)[C@@H](O)[C@H](O)[C@@H]2O)C(O)C(C)C(O)CC(O)/C=C\C(C)C(O)C(C)CCC(O)CC(O)C(C)C(O)C(C)C(O)CC(O)CC(O)C(C)C(C(C)CCCCCCN)OC(=O)CCCCCC(O)C(C)C(O)CC/C=C/C(C)C1O (stereo partly shown) [Monazomycin]
T.vaginalis_%inb_Rep1 [1, 5]: 9.53% | T.vaginalis_%inb_Rep2 [1, 6]: 13.73%

Cc1c2c(c(O)c3c(O)ccc(Cl)c13)C(=O)C1(O)C(O)=C(C(N)=O)C(=O)C(N(C)C)C1C2.Cl (stereo not shown)
T.vaginalis_%inb_Rep1 [1, 3]: 10.90% | T.vaginalis_Absorbance_Rep1 [1, 7]: 0.917 | T.vaginalis_%inb_Rep2 [1, 4]: 9.56% | T.vaginalis_Absorbance_Rep2 [1, 7]: 0.784

COc1ccc(/C=C/C(=O)O)cc1O [BIA-I1729]
T.vaginalis_%inb_Rep1 ([1]; replicate 1, parasite screen at 1 µg/mL): 11.16% | T.vaginalis_%inb_Rep2 ([1]; replicate 2, parasite screen at 1 µg/mL): 13.98%

CCCCCC(=O)C(CCCC)c1oc(=O)c(CCCC)c(O)c1CCCC (stereo not shown) [Elasnin]
T.vaginalis_%inb_Rep1 [1, 3]: 13.95% | T.vaginalis_Absorbance_Rep1 [1, 7]: 0.968 | T.vaginalis_%inb_Rep2 [1, 4]: 11.14% | T.vaginalis_Absorbance_Rep2 [1, 7]: 0.774

CC[C@H](C)C[C@H](C)CCCCCCCCC(=O)N[C@H]1C[C@@H](O)[C@@H](O)NC(=O)[C@@H]2[C@@H](O)CCN2C(=O)[C@H]([C@H](O)CC(N)=O)NC(=O)[C@H]([C@H](O)[C@@H](O)c2ccc(O)cc2)NC(=O)[C@@H]2C[C@@H](O)CN2C(=O)[C@H]([C@@H](C)O)NC1=O [Pneumocandin B0] ({Tetradecanoyl(10R,12S-Me2)}-[Orn(4R-OH,5R-OH)]T[Hyp][hTyr(3S-OH,4S-OH)][Gln(3R-OH)][Pro(3S-OH)]; lactam 1-C)
T.vaginalis_%inb_Rep1 [1, 5]: 10.50% | T.vaginalis_%inb_Rep2 [1, 6]: 8.92%

Elaiophylin
T.vaginalis_Absorbance_Rep1 [1, 7]: 0.954 | T.vaginalis_Absorbance_Rep2 [1, 7]: 0.689

COc1ccc(C[C@H]2NC[C@H](O)[C@H]2OC(C)=O)cc1 [anisomycin, reference compound]
T. vaginalis HTS result in words [1]: supported the anti-trichomonal activity

CCCNC[C@]1(O)[C@H](C)O[C@@H](O[C@H]2[C@H](C)[C@@H](O[C@@H]3O[C@H](C)C[C@H](N(C)C)[C@H]3O)[C@](C)(O)C[C@@H](C)CN[C@H](C)[C@@H](O)[C@](C)(O)[C@@H](CC)OC(=O)[C@@H]2C)C[C@@]1(C)OC [Tulathromycin]
T.vaginalis_%inb_Rep1 [1, 3]: 10.12% | T.vaginalis_%inb_Rep2 [1, 4]: 14.75%

CC1=C[C@H]2O[C@@H]3[C@H](O)[C@@H](O)[C@](C)([C@@]2(CO)[C@H](O)C1=O)[C@]31CO1 [Nivalenol]
T.vaginalis_%inb_Rep1 [1]: 9.96% | T.vaginalis_%inb_Rep2 [1]: 14.26%

CCC1OC2(CCC1C)CC1CC(CC=C(C)CC(C)C=CC=C3COC4C(=NO)C(C)=CC(C(=O)O1)C34O)O2 (stereo not shown) [Milbemycin A4 oxime]
T.vaginalis_%inb_Rep1 [1, 5]: 13.39% | T.vaginalis_%inb_Rep2 [1, 6]: 13.53%

C=C(NC(=O)C(=C)NC(=O)c1ccc2c(n1)-c1coc(n1)C(=C)NC(=O)C(=C)NC(=O)c1nc(oc1C)C(=C)NC(=O)C(C(C)(C)O)NC(=O)C(=C)NC(=O)c1coc(n1)/C(=C/C)NC(=O)[C@H]([C@@H](C)O)NC(=O)c1csc-2n1)C(N)=O (stereo partly shown) [Geninthiocin]
T.vaginalis_%inb_Rep1 [1, 3]: 14.25% | T.vaginalis_Absorbance_Rep1 [1, 7]: 0.983 | T.vaginalis_%inb_Rep2 [1, 4]: 12.51% | T.vaginalis_Absorbance_Rep2 [1, 7]: 0.83

C[C@@H](O)CCCCCCCCCCCCCc1cc(O)cc(O)c1C(=O)O [Phanerosporic acid]
T.vaginalis_%inb_Rep1 [1, 5]: 18.46% | T.vaginalis_%inb_Rep2 [1, 6]: 9.81%

C/C=C(\C)c1cc(O)c(C)c2c1Oc1cc(O)cc(C)c1C(=O)O2 [Unguinol]
T.vaginalis_%inb_Rep1 [1, 3]: 8.70% | T.vaginalis_%inb_Rep2 [1, 4]: 4.39%

COC1=C(O)c2c(O)cc(C)c3c(O)cc(O)c(c23)C1=O [Funalenone]
T.vaginalis_%inb_Rep1 [1, 3]: 14.50% | T.vaginalis_Absorbance_Rep1 [1, 7]: 0.988 | T.vaginalis_%inb_Rep2 [1, 4]: 12.96% | T.vaginalis_Absorbance_Rep2 [1, 7]: 0.837

ikarugamycin [reference compound]
T. vaginalis HTS result in words [1]: supported the anti-trichomonal activity

CCC(C)C1NC(=O)c2c1n(C)c1ccccc1c2=O (stereo not shown) [Quinolactacin A1]
T.vaginalis_%inb_Rep1 [1, 5]: 10.96% | T.vaginalis_%inb_Rep2 [1, 6]: 16.33%

CC[C@H](C)[C@@H]1OC(=O)C(C)(C)[C@@H](O)[C@@H](Cc2ccccc2)OC(=O)[C@H](C(C)C)OC(=O)[C@@H](NC(=O)c2cccc(NC=O)c2O)[C@H](C)OC1=O [Neoantimycin]
T.vaginalis_%inb_Rep1 [1, 5]: 13.59% | T.vaginalis_%inb_Rep2 [1, 6]: 11.67%

CO[C@H]1C[C@H](O[C@H]2[C@H](C)O[C@@H](O[C@@H]3/C(C)=C/C[C@@H]4C[C@@H](C[C@]5(C=C[C@H](C)[C@@H](C6CCCCC6)O5)O4)OC(=O)[C@H]4C=C(C)[C@@H](O)[C@H]5OC/C(=C\C=C\[C@@H]3C)[C@@]45O)C[C@@H]2OC)O[C@@H](C)[C@@H]1O [Doramectin, epi-]
T.vaginalis_%inb_Rep1 [1, 3]: 16.13% | T.vaginalis_Absorbance_Rep1 [1, 7]: 1.02 | T.vaginalis_%inb_Rep2 [1, 4]: 15.52% | T.vaginalis_Absorbance_Rep2 [1, 7]: 0.877

Cc1cc(=O)n2c3c(c4c(cc13)c(CO)cc(=O)n4C)OC2 [Nybomycin]
T.vaginalis_%inb_Rep1 [1, 5]: 11.05% | T.vaginalis_%inb_Rep2 [1, 6]: 10.26%

COC(=O)c1cc(O)cc(OC)c1C(=O)c1c(O)cc(C)cc1OC [Monomethylsulochrin]
T.vaginalis_%inb_Rep1 [1, 5]: 8.42% | T.vaginalis_%inb_Rep2 [1, 6]: 11.03%

CC(=O)Nc1c2sscc-2n(C)c1=O [thiolutin, reference compound]
T. vaginalis HTS result in words [1]: supported the anti-trichomonal activity

CC[C@H]1CCC[C@H](O)[C@@H](C)C(=O)C2=C[C@H]3[C@@H]4C[C@H](O)C[C@H]4CC[C@H]3[C@@H]2CC(=O)O1 [Dihydrospinosyn A aglycone]
T.vaginalis_%inb_Rep1 [1, 3]: 13.89% | T.vaginalis_Absorbance_Rep1 [1, 7]: 0.967 | T.vaginalis_%inb_Rep2 [1, 4]: 12.58% | T.vaginalis_Absorbance_Rep2 [1, 7]: 0.794

CC1=C[C@H]2C(=O)O[C@H]3C[C@@H](C/C=C(\C)C[C@@H](C)/C=C/C=C4\CO[C@H]([C@@H]1O)[C@@]42O)O[C@@]1(CC[C@H](C)[C@@H](C)O1)C3 [Milbemycin A3]
T.vaginalis_%inb_Rep1 [1, 5]: 11.05% | T.vaginalis_%inb_Rep2 [1, 6]: 8.85%

CN(C)[C@@H]1C(O)=C(C(N)=O)C(=O)[C@@]2(O)C(O)=C3C(=O)c4c(O)cccc4[C@@](C)(O)[C@H]3C[C@@H]12 [BIA-T1334]
T.vaginalis_%inb_Rep1 ([1]; parasite screen at 1 µg/mL, replicate 1): 9.28% | T.vaginalis_%inb_Rep2 ([1]; parasite screen at 1 µg/mL, replicate 2): 5.48%

O=C(O)C1CSC(c2ccccc2O)=N1 (stereo not shown) [Dihydroaeruginoic acid]
T.vaginalis_%inb_Rep1 [1, 3]: 11.15% | T.vaginalis_Absorbance_Rep1 [1, 7]: 0.916 | T.vaginalis_%inb_Rep2 [1, 4]: 12.87% | T.vaginalis_Absorbance_Rep2 [1, 7]: 0.798
